According to patent publication US7144858B2, “Antibacterial compounds and methods for treating Gram positive bacterial infections” (The Trustees of the University of Pennsylvania, priority 2002, dated 2006):

How the values were obtained:
[1] = Isothermal titration calorimetry with Park's nucleotide; type: binding, Bacillus subtilis; settings: 25° C., water, Park's nucleotide 5.4 mM injected into 1 mM compound
Protocol: (§1) The resultant antibacterial compound was then titrated against a solution of the cytoplasmic PG biosynthetic precursor of lipid II, Park's nucleotide. Isothermal titration calorimetry experiments were used to measure the interaction between the antibacterial compound and Park's nucleotide. The experiments were performed at 25° C. using a titration microcalorimeter equipped with a 250 μL injection syringe and a 400 rpm stirring rate. Both the, antibacterial compound and Park's nucleotide were dissolved in water and vacuum degassed before use. Park's nucleotide (20×10 μL injection of a 5.4 mM solution) was injected into an ITC cell containing ca. 1.3 mL of the antibacterial compound (1 mM). Control experiments were performed under identical conditions by injection of the compound into water alone, Park's nucleotide into water, and the reverse experiment of titrating water into solution of the antibacterial compound or Park's nucleotide. […] The complex pattern of heat released during the titration is indicative of ligand-induced aggregation. Insoluble fibrils were produced from soluble fibril preparations by increasing the ionic strength to greater than or equal to 100 mM.

[2] = Binding to UDP-MurNAc tripeptide lipid II precursor, NMR titration; design: species or system Bacillus subtilis; settings: for Complexation/binding with UDP-MurNAc-L-Ala-γ-D-Glu-L-Dap tripeptide: NMR analysis / titration
Protocol: (§2) Mass spectra were recorded on commercially available spectrometers and HPLC was performed on a commercially available columns. Both the NMR spectroscopy and transmission electron micrographs were performed in a manner known to one of ordinary skill in the art. Fmoc-amino acids and deuterated solvents were purchased from a commercial supplier. Measurement of dissociation constants was performed by NMR.
(§3) UDP-MurNAc-L-Ala-γ-D-Glu-L-Dap-D-Ala-D-Ala pentapeptide (Park's nucleotide) and UDP-MurNAc-L-Ala-γ-D-Glu-L-Dap tripeptide were isolated from Bacillus subtilis by methods known to those of ordinary skill in the art.
as §1
The resultant antibacterial compound still maintains the side-chain amine cationic charge. […] These values indicate that there was a strong affinity of the antibacterial compound to the two lipid II precursors.

[3] = Binding to Park's nucleotide, Kd by 1H NMR titration; design: species or system Bacillus subtilis; settings: for Kd: 20% DMSO, NMR titration
Protocol: Fibril formation is observed in vitro and serves as a convenient predictor of PG complexation in vitro. […] Therefore, DMSO allows for the determination of binding affinity (Kd) values and characterization of the binding interface by Nuclear Magnetic Resonance spectroscopy (NMR).
as §2, §3, §1

Gram positive bacteria = assay: Antibiotic activity; type: cell-based

Substance | Ligand-induced aggregation during ITC titration [1] | Complexation/binding with UDP-MurNAc-L-Ala-γ-D-Glu-L-Dap tripeptide [2] | Kd [3] [µM] | Complexation with Park's nucleotide by NMR ([3]; NMR analysis) | Decrease in binding affinity with Park's nucleotide ([3]; titration experiments) [fold] | Antibiotic activity (Gram positive bacteria) | Kd ([2]; titration as in example 1, read-out: Kd value with UDP-MurNAc-L-Ala-γ-D-Glu-L-Dap tripeptide) [µM]
cyclic (lactone) antibacterial compound containing octapeptide -Hpg-Orn-Thr-Hpg-Hpg-Thr-Phe-Orn-, diguanidylated at the ornithine residues [Example 1] | ligand-induced aggregation occurred | clear evidence of complexation and formation of a large, soluble aggregate | 170 | clear evidence of complexation and formation of a large, soluble aggregate |  |  | 
cyclic (lactone) compound containing octapeptide -Hpg-Orn-Thr-Hpg-Hpg-Thr-Phe-Orn-, diacetylated at the ornithine residues; lacks the side-chain cationic charge [Comparative Example A, reference compound] |  | failed to show detectable binding | 1340 ± 320 |  | ~10 | markedly reduced | 
cyclic (lactone) compound containing octapeptide -Hpg-Orn-Thr-Hpg-Hpg-Thr-Phe-Orn-, ornithine residues modified into secondary amines with isovaleraldehyde [Example 2] |  |  | 130 ± 20 |  |  |  | 1280 ± 140
